Test system: PDC KRAS tumor spheroids with HUVEC/MSC, viability
Assay: Anticancer human tumor 349418-098-R-PDC patient-derived lung adenocarcinoma cell line growth inhibition [KRAS2]
Conditions: for viability, T/C: stronger effect = lower value; active = viability on the fitted dose curve at most 10% of control; inactive = the rest
Outline: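 Combination screen of spheroid viability in tumor-cell co-cultures with endothelial (HUVEC) and mesenchymal stem cell stroma. Each agent was tested in half-log dilutions, topping at clinical Cmax or at 10 microM without a known Cmax.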

[1] = curve of first compound, second compound 0.0316 µM
[2] = curve of first compound, second compound 0.1 µM
[3] = curve of first compound, second compound 0.316 µM
[4] = curve of first compound, second compound 1 µM
[5] = curve of first compound, second compound 3.16 µM
[6] = second compound 0.0316 µM, first compound 0.0316 µM
[7] = second compound 0.0316 µM, first compound 0.1 µM
[8] = second compound 0.1 µM, first compound 0.0316 µM
[9] = second compound 0.1 µM, first compound 0.1 µM
[10] = second compound 0.1 µM, first compound 0.316 µM
[11] = second compound 0.1 µM, first compound 1 µM
[12] = second compound 0.1 µM, first compound 3.16 µM
[13] = second compound 0.1 µM, first compound 10 µM
[14] = second compound 0.316 µM, first compound 0.0316 µM
[15] = second compound 0.316 µM, first compound 0.1 µM
[16] = second compound 0.316 µM, first compound 0.316 µM
[17] = second compound 0.316 µM, first compound 1 µM
[18] = second compound 0.316 µM, first compound 3.16 µM
[19] = second compound 0.316 µM, first compound 10 µM
[20] = second compound 1 µM, first compound 0.0316 µM
[21] = second compound 1 µM, first compound 0.1 µM
[22] = second compound 1 µM, first compound 0.316 µM
[23] = second compound 1 µM, first compound 1 µM
[24] = second compound 1 µM, first compound 3.16 µM
[25] = second compound 1 µM, first compound 10 µM
[26] = second compound 3.16 µM, first compound 0.0316 µM
[27] = second compound 3.16 µM, first compound 0.1 µM
[28] = second compound 3.16 µM, first compound 0.316 µM
[29] = second compound 3.16 µM, first compound 1 µM
[30] = second compound 3.16 µM, first compound 3.16 µM
[31] = second compound 3.16 µM, first compound 10 µM
[32] = curve of first compound, second compound 10 µM
[33] = second compound 0.1 µM, first compound 0.000316 µM
[34] = second compound 0.1 µM, first compound 0.001 µM
[35] = second compound 0.1 µM, first compound 0.00316 µM
[36] = second compound 0.1 µM, first compound 0.01 µM
[37] = second compound 0.316 µM, first compound 0.000316 µM
[38] = second compound 0.316 µM, first compound 0.001 µM
[39] = second compound 0.316 µM, first compound 0.00316 µM
[40] = second compound 0.316 µM, first compound 0.01 µM
[41] = second compound 1 µM, first compound 0.000316 µM
[42] = second compound 1 µM, first compound 0.001 µM
[43] = second compound 1 µM, first compound 0.00316 µM
[44] = second compound 1 µM, first compound 0.01 µM
[45] = second compound 3.16 µM, first compound 0.000316 µM
[46] = second compound 3.16 µM, first compound 0.001 µM
[47] = second compound 3.16 µM, first compound 0.00316 µM
[48] = second compound 3.16 µM, first compound 0.01 µM
[49] = second compound 10 µM, first compound 0.00316 µM
[50] = second compound 10 µM, first compound 0.01 µM
[51] = second compound 10 µM, first compound 0.0316 µM
[52] = second compound 10 µM, first compound 0.1 µM
[53] = second compound 10 µM, first compound 0.316 µM
[54] = second compound 10 µM, first compound 1 µM
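Note: spheroids exposed to compounds for seven days before readout.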

Cn1nccc1Nc1nccc(-c2cc3c(s2)C(C)(C)N(CCN2CCOCC2)C3=O)n1 + C=CC(=O)N1CCN(c2nc(OCC3CCCN3C)nc3c2CCN(c2cccc4cccc(C)c24)C3)CC1CC#N
59.7 nM: IC50 [2]
inactive: viability, T/C [6] 57.1% | viability, T/C [7] 33.1% | viability, T/C (second compound 0.0316 µM, first compound 0.316 µM) 20.7% | viability, T/C (second compound 0.0316 µM, first compound 1 µM) 8.51% | viability, T/C [8] 70.2% | viability, T/C [9] 31.8% | viability, T/C [10] 21.5% | viability, T/C [11] 8.37% | viability, T/C [14] 62.2% | viability, T/C [15] 31% | viability, T/C [16] 14.8% | viability, T/C [20] 41.5% | viability, T/C [21] 32.5% | viability, T/C [22] 13.6%
active: viability, T/C (second compound 0.0316 µM, first compound 3.16 µM) 7.52% | viability, T/C (second compound 0.0316 µM, first compound 10 µM) 5.99% | viability, T/C [12] 7.54% | viability, T/C [13] 5.51% | viability, T/C [17] 9.55% | viability, T/C [18] 7.33% | viability, T/C [19] 4.36% | viability, T/C [23] 7.03% | viability, T/C [24] 4.51% | viability, T/C [25] 3.02% | viability, T/C [26] 0.13% | viability, T/C [27] 0.09% | viability, T/C [28] 0.07% | viability, T/C [29] 0.07% | viability, T/C [30] 0.07% | viability, T/C [31] 0.17%
< 31.6 nM: IC50 [4] | IC50 [5]
49.3 nM: IC50 [3]
44.7 nM: IC50 [1]

CC(=O)Nc1cccc(-n2c(=O)n(C3CC3)c(=O)c3c(Nc4ccc(I)cc4F)n(C)c(=O)c(C)c32)c1 + CNCc1ccccc1-c1csc(C(C)Nc2nc(C)nc3cc(OC)c(OC)cc23)c1
active: viability, T/C [35] 9.99% | viability, T/C [36] 8.08% | viability, T/C [8] 5.08% | viability, T/C [38] 9.67% | viability, T/C [39] 7.39% | viability, T/C [40] 7.29% | viability, T/C [14] 5.28% | viability, T/C [41] 8.66% | viability, T/C [42] 7.27% | viability, T/C [43] 5.84% | viability, T/C [44] 5.69% | viability, T/C [20] 4.51% | viability, T/C (second compound 3.16 µM, first compound 0.0001 µM) 0.05% | viability, T/C [45] 0.03% | viability, T/C [46] 0.02% | viability, T/C [47] 0.02% | viability, T/C [48] 0.1% | viability, T/C [26] 0.08% | viability, T/C (second compound 10 µM, first compound 0.0001 µM) 0.13% | viability, T/C (second compound 10 µM, first compound 0.000316 µM) 0.08% | viability, T/C (second compound 10 µM, first compound 0.001 µM) 0.07% | viability, T/C [49] 0.07% | viability, T/C [50] 0.08% | viability, T/C [51] 0.13%
< 0.1 nM: IC50 [2] | IC50 [3] | IC50 [4] | IC50 [5] | IC50 [32]
inactive: viability, T/C (second compound 0.1 µM, first compound 0.0001 µM) 21.2% | viability, T/C [33] 12.7% | viability, T/C [34] 10.5% | viability, T/C (second compound 0.316 µM, first compound 0.0001 µM) 20.8% | viability, T/C [37] 12.2% | viability, T/C (second compound 1 µM, first compound 0.0001 µM) 17%

CC(C)n1nc(-c2ccc3oc(N)nc3c2)c2c(N)ncnc21 + C=CC(=O)N1CCN(c2nc(OCC3CCCN3C)nc3c2CCN(c2cccc4cccc(C)c24)C3)CC1CC#N
1.04 nM: IC50 [1]
0.673 nM: IC50 [4]
active: viability, T/C (second compound 0.0316 µM, first compound 0.01 µM) 9.06% | viability, T/C [6] 8.26% | viability, T/C [7] 8.57% | viability, T/C [36] 8.16% | viability, T/C [8] 7.73% | viability, T/C [9] 7.41% | viability, T/C [40] 9.14% | viability, T/C [14] 7.31% | viability, T/C [15] 7.9% | viability, T/C [44] 7.45% | viability, T/C [20] 6.31% | viability, T/C [21] 6.74% | viability, T/C [45] 1% | viability, T/C [46] 0.25% | viability, T/C [47] 1.1% | viability, T/C [48] 0.13% | viability, T/C [26] 0.22% | viability, T/C [27] 0.17%
inactive: viability, T/C (second compound 0.0316 µM, first compound 0.000316 µM) 91.5% | viability, T/C (second compound 0.0316 µM, first compound 0.001 µM) 51.2% | viability, T/C (second compound 0.0316 µM, first compound 0.00316 µM) 14.9% | viability, T/C [33] 95.8% | viability, T/C [34] 35.6% | viability, T/C [35] 13.9% | viability, T/C [37] 92.3% | viability, T/C [38] 45.2% | viability, T/C [39] 18% | viability, T/C [41] 71.8% | viability, T/C [42] 38.3% | viability, T/C [43] 17.3%
0.891 nM: IC50 [3]
0.76 nM: IC50 [2]
< 0.316 nM: IC50 [5]

CCN1CCN(Cc2ccc(Nc3ncc(F)c(-c4cc(F)c5nc(C)n(C(C)C)c5c4)n3)nc2)CC1 + COc1cc2nc(C)nc(NC(C)c3cc(N)cc(C(F)(F)F)c3)c2cc1OC1CCOC1
< 3.16 nM: IC50 [2] | IC50 [5] | IC50 [32]
inactive: viability, T/C [35] 49.7% | viability, T/C [36] 25.8% | viability, T/C [8] 25.5% | viability, T/C [9] 20.2% | viability, T/C [10] 14.2% | viability, T/C [39] 61.8% | viability, T/C [40] 33% | viability, T/C [14] 16.6% | viability, T/C [15] 16.1% | viability, T/C [16] 13.6% | viability, T/C [43] 69.3% | viability, T/C [44] 31.1% | viability, T/C [20] 14.2% | viability, T/C [21] 13.4% | viability, T/C [47] 40.8% | viability, T/C [48] 25% | viability, T/C [26] 14.5% | viability, T/C [27] 11.7% | viability, T/C [49] 11.7%
5.01 nM: IC50 [3]
5.63 nM: IC50 [4]
active: viability, T/C [11] 5.42% | viability, T/C [17] 4.29% | viability, T/C [22] 10.5% | viability, T/C [23] 4.38% | viability, T/C [28] 8.46% | viability, T/C [29] 1.57% | viability, T/C [50] 8.02% | viability, T/C [51] 4.11% | viability, T/C [52] 2.43% | viability, T/C [53] 0.61% | viability, T/C [54] 0.15%

COc1cc(OC)cc(N(CCNC(C)C)c2ccc3ncc(-c4cnn(C)c4)nc3c2)c1
2.53 µM [middle of 4 runs]: IC50 (curve of compound)
inactive: viability, T/C (compound 0.0316 µM) 99% [middle of 4 runs] | viability, T/C (compound 0.1 µM) 102% [middle of 4 runs] | viability, T/C (compound 1 µM) 98.2% [middle of 4 runs] | viability, T/C (compound 3.16 µM) 38.9% [middle of 4 runs]
active: viability, T/C (compound 10 µM) 0.57% [middle of 4 runs]

O=C(c1cc(Cc2n[nH]c(=O)c3ccccc23)ccc1F)N1CCN(C(=O)C2CC2)CC1 + COc1cc2nc(C)nc(NC(C)c3cc(N)cc(C(F)(F)F)c3)c2cc1OC1CCOC1
4960 nM: IC50 [4]
inactive: viability, T/C [8] 89.4% | viability, T/C [9] 96% | viability, T/C [10] 85.9% | viability, T/C [11] 85.6% | viability, T/C [12] 64.8% | viability, T/C [13] 32.3% | viability, T/C [14] 92.7% | viability, T/C [15] 94.8% | viability, T/C [16] 77.5% | viability, T/C [17] 87.6% | viability, T/C [18] 57.8% | viability, T/C [19] 27.5% | viability, T/C [20] 110% | viability, T/C [21] 105% | viability, T/C [22] 75.8% | viability, T/C [23] 93.8% | viability, T/C [24] 61.5% | viability, T/C [25] 30.2% | viability, T/C [26] 93.2% | viability, T/C [27] 76.6% | viability, T/C [28] 80.5% | viability, T/C [29] 60.1% | viability, T/C [30] 41.1% | viability, T/C [31] 23.8% | viability, T/C [51] 89.9% | viability, T/C [52] 36.1% | viability, T/C [53] 35.3% | viability, T/C [54] 22.2% | viability, T/C (second compound 10 µM, first compound 3.16 µM) 10.2% | viability, T/C (second compound 10 µM, first compound 10 µM) 9.73%
1940 nM: IC50 [5]
5370 nM: IC50 [2]
87.3 nM: IC50 [32]
4260 nM: IC50 [3]

Reference: PubChem BioAssay AID1963866 (Molecular Pharmacology Branch, DTP, NCI, 2024)
